Experimental data reported in PubChem BioAssay AID248 (DTP/NCI, 2004).
“And” between values parts separate entries of the source, which are not always exact repeats. Equal values may be shown once. Toxic doses and inconclusive results are not listed. Rule as the data show it: active = T/C of 150% or more; inactive = T/C below 125%.

System: L1210 leukemia ip in BDF1 mice, survival T/C
Assay: NCI In Vivo Anticancer Drug Screen. Data for tumor model L1210 Leukemia (intraperitoneal) in B6D2F1 (BDF1) mice
Conditions: endpoint: mean survival time, higher = longer survival
Method in brief: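 Transplanted-tumor mice were given test agent; controls received vehicle only. Survival readings from the two groups were divided (treated over control).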

[1] = dose: 400.0 mg/kg/injection, schedule: Q01DX009 (ip), vehicle: Klucel (hydroxypropylcellulose) (HPC)
[2] = dose: 100.0 mg/kg/injection, schedule: Q01DX001 (ip), vehicle: saline
[3] = dose: 100.0 mg/kg/injection, schedule: Q04DX003 (ip), vehicle: saline with Tween-80
[4] = dose: 200.0 mg/kg/injection, schedule: Q04DX003 (ip), vehicle: saline with Tween-80
[5] = dose: 400.0 mg/kg/injection, schedule: Q04DX003 (ip), vehicle: saline with Tween-80
[6] = dose: 200.0 mg/kg/injection, schedule: Q04DX003 (ip), vehicle: Klucel (hydroxypropylcellulose) (HPC)

Measured: T/C

Cc1cc(-c2cc(C)c(O)c(C(C)(C)C)c2)cc(C(C)(C)C)c1O
inactive: dose: 25.0 mg/kg/injection, schedule: Q04DX002 (ip), vehicle: gum acacia 95 % of control | dose: 50.0 mg/kg/injection, schedule: Q04DX002 (ip), vehicle: gum acacia 95 % of control | dose: 100.0 mg/kg/injection, schedule: Q04DX002 (ip), vehicle: gum acacia 91 % of control

COc1ccc(-c2cc(C(=O)O)c3cc4ccccc4cc3n2)cc1Br
inactive: dose: 100.0 mg/kg/injection, schedule: Q01DX009 (ip), vehicle: Klucel (hydroxypropylcellulose) (HPC) 107 % of control | dose: 200.0 mg/kg/injection, schedule: Q01DX009 (ip), vehicle: Klucel (hydroxypropylcellulose) (HPC) 93 % of control | [1] 105 % of control

CCOC(=O)/C(C#N)=C\C1(C)CCC(C)=CO1 (stereo not drawn)
inactive: dose: 100.0 mg/kg/injection, schedule: Q01DX009 (ip), vehicle: saline with Tween-80 96 % of control | dose: 100.0 mg/kg/injection, schedule: Q04DX002 (ip), vehicle: saline with Tween-80 92 % of control | dose: 200.0 mg/kg/injection, schedule: Q01DX009 (ip), vehicle: saline with Tween-80 110 % of control | dose: 200.0 mg/kg/injection, schedule: Q04DX002 (ip), vehicle: saline with Tween-80 115 % of control | dose: 400.0 mg/kg/injection, schedule: Q01DX009 (ip), vehicle: saline with Tween-80 100 % of control | dose: 400.0 mg/kg/injection, schedule: Q04DX002 (ip), vehicle: saline with Tween-80 96 % of control

CCCOC(=O)CCl
inactive: [2] 113 % of control

O=c1[nH]cnc2c1[nH]c(=S)n2C1OC(CO)C(O)C1O (stereo not drawn)
inactive: [2] 108 % of control | dose: 200.0 mg/kg/injection, schedule: Q01DX001 (ip), vehicle: saline 96 % of control | dose: 400.0 mg/kg/injection, schedule: Q01DX001 (ip), vehicle: saline 100 % of control

CC(C)CN(CC(C)C)c1ccc([N+](=O)[O-])cc1[N+](=O)[O-]
inactive: [3] 94 % of control | [4] 98 % of control | [5] 96 % of control

COc1cc2c(c(OC)c1OC)-c1ccc(OC)c(=O)cc1[C@@H](NC(=O)CF)CC2
inactive: dose: 0.04 mg/kg/injection, schedule: Q01DX009 (ip), vehicle: saline 113 % of control | dose: 0.06 mg/kg/injection, schedule: Q04DX002 (ip), vehicle: saline with Tween-80 101 % of control | dose: 0.09 mg/kg/injection, schedule: Q01DX001 (ip), vehicle: saline with Tween-80 116 % of control | dose: 0.09 mg/kg/injection, schedule: Q01DX009 (ip), vehicle: saline with Tween-80 122 % of control | dose: 0.09 mg/kg/injection, schedule: Q01DX009 (ip), vehicle: saline 118 % of control | dose: 0.09 mg/kg/injection, schedule: Q04DX003 (ip), vehicle: saline with Tween-80 108 % of control | dose: 0.12 mg/kg/injection, schedule: Q04DX002 (ip), vehicle: saline with Tween-80 104 % of control | dose: 0.18 mg/kg/injection, schedule: Q01DX001 (ip), vehicle: saline with Tween-80 119 % of control | dose: 0.18 mg/kg/injection, schedule: Q04DX003 (ip), vehicle: saline with Tween-80 113 % of control | dose: 0.25 mg/kg/injection, schedule: Q04DX002 (ip), vehicle: saline with Tween-80 117 % of control | dose: 0.37 mg/kg/injection, schedule: Q01DX001 (ip), vehicle: saline with Tween-80 114 % of control | dose: 0.37 mg/kg/injection, schedule: Q01DX009 (ip), vehicle: saline with Tween-80 100 % of control | dose: 0.37 mg/kg/injection, schedule: Q04DX003 (ip), vehicle: saline with Tween-80 118 % of control | dose: 0.5 mg/kg/injection, schedule: Q04DX002 (ip), vehicle: saline with Tween-80 121 % of control | dose: 0.75 mg/kg/injection, schedule: Q01DX001 (ip), vehicle: saline with Tween-80 121 % of control | dose: 0.75 mg/kg/injection, schedule: Q04DX003 (ip), vehicle: saline with Tween-80 116 % of control | dose: 1.5 mg/kg/injection, schedule: Q04DX002 (ip), vehicle: saline with Tween-80 113 % of control | dose: 2.0 micrograms/kg/injection, schedule: Q01DX009 (ip), vehicle: saline with Tween-80 97 % of control | dose: 5.0 micrograms/kg/injection, schedule: Q01DX009 (ip), vehicle: saline with Tween-80 105 % of control | dose: 10.0 micrograms/kg/injection, schedule: Q01DX009 (ip), vehicle: saline with Tween-80 89 % of control

C=C1C(=O)OC2C1C(O)CC(C)(O)C1CC=C(C)C21 (stereo not drawn)
inactive: dose: 100.0 mg/kg/injection, schedule: Q04DX002 (ip), vehicle: saline 102 % of control | dose: 200.0 mg/kg/injection, schedule: Q04DX002 (ip), vehicle: saline 102 % of control | dose: 400.0 mg/kg/injection, schedule: Q04DX002 (ip), vehicle: saline 94 % of control

O=C(COc1cccc(Cl)c1)Nc1cccnc1
inactive: dose: 12.0 mg/kg/injection, schedule: Q01DX009 (ip), vehicle: Klucel (hydroxypropylcellulose) (HPC) 89 % of control | dose: 25.0 mg/kg/injection, schedule: Q01DX009 (ip), vehicle: Klucel (hydroxypropylcellulose) (HPC) 98 % of control | dose: 50.0 mg/kg/injection, schedule: Q01DX009 (ip), vehicle: Klucel (hydroxypropylcellulose) (HPC) 92 % of control | dose: 100.0 mg/kg/injection, schedule: Q04DX003 (ip), vehicle: Klucel (hydroxypropylcellulose) (HPC) 93 % of control | [6] 103 % of control | [1] 87 % of control

CC(C)Nc1nc(Cl)nc(NC(C)C)n1
inactive: dose: 150.0 mg/kg/injection, schedule: Q01DX009 (ip), vehicle: Klucel (hydroxypropylcellulose) (HPC) 101 % of control | [6] 96 % of control | dose: 225.0 mg/kg/injection, schedule: Q01DX009 (ip), vehicle: Klucel (hydroxypropylcellulose) (HPC) 94 % of control | dose: 335.0 mg/kg/injection, schedule: Q01DX009 (ip), vehicle: Klucel (hydroxypropylcellulose) (HPC) 94 % of control | dose: 400.0 mg/kg/injection, schedule: Q04DX003 (ip), vehicle: Klucel (hydroxypropylcellulose) (HPC) 94 % of control

COc1ccccc1NC(=O)Nc1ccc(C)c(C)c1
inactive: dose: 100.0 mg/kg/injection, schedule: Q01DX009 (ip), vehicle: gum acacia 92 % of control | dose: 100.0 mg/kg/injection, schedule: Q04DX003 (ip), vehicle: gum acacia 96 % of control | dose: 200.0 mg/kg/injection, schedule: Q01DX009 (ip), vehicle: gum acacia 96 % of control | dose: 200.0 mg/kg/injection, schedule: Q04DX003 (ip), vehicle: gum acacia 98 % of control | dose: 400.0 mg/kg/injection, schedule: Q01DX009 (ip), vehicle: gum acacia 90 % of control | dose: 400.0 mg/kg/injection, schedule: Q04DX003 (ip), vehicle: gum acacia 90 % of control

O=C(Nc1ccc(F)cc1)Nc1ccc(CCO)cc1
inactive: dose: 100.0 mg/kg/injection, schedule: Q01DX001 (ip), vehicle: carboxymethylcellulose (CMC) 99 % of control | dose: 100.0 mg/kg/injection, schedule: Q01DX009 (ip), vehicle: carboxymethylcellulose (CMC) 101 % of control and 104 % of control | dose: 100.0 mg/kg/injection, schedule: Q04DX002 (ip), vehicle: carboxymethylcellulose (CMC) 92 % of control and 87 % of control and 91 % of control | dose: 100.0 mg/kg/injection, schedule: Q04DX003 (ip), vehicle: carboxymethylcellulose (CMC) 95 % of control | dose: 200.0 mg/kg/injection, schedule: Q01DX001 (ip), vehicle: carboxymethylcellulose (CMC) 92 % of control | dose: 200.0 mg/kg/injection, schedule: Q01DX009 (ip), vehicle: carboxymethylcellulose (CMC) 92 % of control and 98 % of control | dose: 200.0 mg/kg/injection, schedule: Q04DX002 (ip), vehicle: carboxymethylcellulose (CMC) 87 % of control and 88 % of control and 90 % of control | dose: 200.0 mg/kg/injection, schedule: Q04DX003 (ip), vehicle: carboxymethylcellulose (CMC) 101 % of control | dose: 400.0 mg/kg/injection, schedule: Q01DX009 (ip), vehicle: carboxymethylcellulose (CMC) 92 % of control | dose: 400.0 mg/kg/injection, schedule: Q04DX002 (ip), vehicle: carboxymethylcellulose (CMC) 93 % of control and 87 % of control and 88 % of control | dose: 400.0 mg/kg/injection, schedule: Q04DX003 (ip), vehicle: carboxymethylcellulose (CMC) 91 % of control

CCCCCCCCCCCCCCCCOc1ccc(S(=O)(=O)N(Cc2ccccc2)Cc2ccccc2)cc1[N+](=O)[O-]
inactive: [3] 86 % of control | [4] 95 % of control | [5] 90 % of control
